According to patent publication US20020177621A1, “Antifungal fragrance composition” (priority 2000, published 2002):
Where “and” joins values, the source holds several entries; their conditions need not be identical. Equal entries are not always repeated. Entries after “also recorded” stand apart in the source; their conditions may differ.

How the values were obtained:
Format in all cases: cell-based
[1] = test system: Aspergillus niger IFO 9455 (An-1); experiment: Fragrant vapor antifungal activity (impregnated paper disc on cover of inverted agar plate); settings: 72 hours at 27° C.; for IZ: Diameter of growth inhibition zone: 20 μl fragrance (or 40 μl of 50% ethanol solution) on disc, >85 = growth inhibited over entire plate; for SI: Diameter of spore formation inhibition zone / Growth: Growth status outside the inhibition zone: 20 μl fragrance on disc; for Growth: Growth status outside the inhibition zone: compared with control
Method: (§1) Physiological saline containing 0.05% Tween-80 was added to a slant on which the test organism grew well, and a spore suspension was produced at 1×10^6 CFU (Colony Forming Units)/ml in accordance with ordinary methods. Potato dextrose agar (PDA: Nissui Pharmaceutical) was used for the medium. To begin with, 10 ml of sterile PDA was pipetted into a Petri dish and after it solidified, another 6 ml of PDA containing 1% of the above described spore suspension was overlaid and solidified to prepare the test agar plate. For the fragrance sample, if the sample is in the form of liquid at ordinary temperatures, 20 μl of liquid was directly impregnated into a paper disc (Advantech, diameter: 8 mm, thick material), while a 50% by weight ethanol solution was prepared for crystals or powder, and 40 μl of that solution was then impregnated into the paper disc.
(§2) The test agar plate was placed inversely, and the paper disc impregnated with the fragrance sample was placed in the center of the cover of the agar plate, followed by incubating for 72 hours at 27° C. Evaluation was made based on the diameter (mm) of the mold growth inhibition zone. When mold growth was inhibited over the entire surface of the agar plate, the diameter of the growth inhibition zone was reported as >85 mm. At locations where mold grew outside the inhibition zone, the diameter of the spore formation inhibition zone and the degree of growth were recorded by comparing with a control. The molds used in the test are shown in Table 1, wherein these molds consist of mold species that are isolated at high frequencies from rooms and bath rooms.
(§3) The amount of blended fragrance added to the paper discs was 20 μl each, and only the diameter of the inhibition zone (mm) is indicated for the results.

[2] = test system: Aureobasidium pullulans IFO 6353 (Ap-1); experiment: as above; settings: 72 hours at 27° C.; for IZ: Diameter of growth inhibition zone: 20 μl fragrance (or 40 μl of 50% ethanol solution) on disc, >85 = growth inhibited over entire plate; for SI: Diameter of spore formation inhibition zone / Growth: Growth status outside the inhibition zone: 20 μl fragrance on disc; for Growth: Growth status outside the inhibition zone: compared with control
Method: as §1, §2, §3

[3] = test system: Cladosporium cladosporioides IFO 6348 (Cc-1); experiment: as above; settings: 72 hours at 27° C.; for IZ: Diameter of growth inhibition zone: 20 μl fragrance (or 40 μl of 50% ethanol solution) on disc, >85 = growth inhibited over entire plate; for Growth: Growth status outside the inhibition zone: compared with control
Method: as §1, §2, §3

An-1 (Aspergillus niger) = experiment: Confirmation of synergistic action of two fragrances (vapor, paper disc); settings: for Synergistic effect: second fragrance that shows synergistic action with the fragrance component: combined IZ 20 mm or more larger than sum of single IZ; for Additive effect: second fragrance that shows additive action with the fragrance component: combined IZ intermediate
Method: An agar plate prepared according to the method of Example 1 was used while using An-1 (Aspergillus niger) for the test fungi. […] 10 μl of the ethanol containing the Table 3 prescribed amount of the fragrance was impregnated into a paper disc. The test agar plate was placed inversely, and the paper disc impregnated with each fragrance alone and a paper disc simultaneously impregnated with two types of fragrances were placed in the center of the cover, followed by incubating for 72 hours at 27° C. and measuring the diameters of the resulting growth inhibition zones.
The results obtained as in Example 2 with other combinations are shown in Tables 4 through 7 as combination examples of respective synergistic, additive and antagonistic actions for each fragrant chemical product (a). […] It should be noted that in order to make the table smaller, combinations that have already been listed once are not listed in other columns of the tables.

Row | Structure (SMILES) | IZ: Diameter of growth inhibition zone [1] [mm] | SI: Diameter of spore formation inhibition zone [1] [mm] | IZ: Diameter of growth inhibition zone [2] [mm] | SI: Diameter of spore formation inhibition zone [2] [mm] | IZ: Diameter of growth inhibition zone [3] [mm] | Growth: Growth status outside the inhibition zone [1] | Growth: Growth status outside the inhibition zone [2] | Growth: Growth status outside the inhibition zone ([3]; 20 μl fragrance on disc) | Synergistic effect: second fragrance that shows synergistic action with the fragrance component (An-1 (Aspergillus niger); value = combination partner) | Antagonistic effect: second fragrance that shows antagonistic action with the fragrance component (An-1 (Aspergillus niger); value = combination partner, combined IZ 20 mm or more smaller than sum of single IZ) | Additive effect: second fragrance that shows additive action with the fragrance component (An-1 (Aspergillus niger); value = combination partner) | IZ (diameter of growth inhibition zone) (An-1 (Aspergillus niger); 72 hours at 27° C., sample amount on disc: citral 2 μl, benzaldehyde 10 μl, dimethyl tetrahydrobenzaldehyde 20 μl, geraniol 10 μl, octyl aldehyde 20 μl, 9-decen-1-ol 0.5 μl, trans-2-undecenal 3 μl, phenylacetaldehyde 5 μl, A + B = both amounts on one disc) [mm] | Growth (growth status outside the inhibition zone) (An-1 (Aspergillus niger); 72 hours at 27° C., sample amounts as in Table 3 (citral 2 μl, benzaldehyde 10 μl, dimethyl tetrahydrobenzaldehyde 20 μl, geraniol 10 μl, octyl aldehyde 20 μl, 9-decen-1-ol 0.5 μl, trans-2-undecenal 3 μl, phenylacetaldehyde 5 μl; A + B = both)) | SI (diameter of spore formation inhibition zone) (An-1 (Aspergillus niger); 72 hours at 27° C., sample amounts as in Table 3 (citral 2 μl, benzaldehyde 10 μl, dimethyl tetrahydrobenzaldehyde 20 μl, geraniol 10 μl, octyl aldehyde 20 μl, trans-2-undecenal 3 μl, phenylacetaldehyde 5 μl; A + B = both)) [mm] | SI: Diameter of spore formation inhibition zone ([3]; 20 μl fragrance on disc) [mm]
1 | COc1ccc(C=O)cc1 [Anisaldehyde] | 45 | 60 | 35 | 40 | >85 |  |  |  |  |  |  |  |  |  | 
2 | CC(C)=CCCC(C)CCO (stereo not drawn) [Citronellol] | 35 | 55 | 35 |  | 35 | good | weak | weak | Citral DMA,; also recorded: Citral DEA, | Thymol and 9-Decen-1-ol | 1-Nonanal, and 1-Decanol, and Anisaldehyde |  |  |  | 
3 | COC(C=C(C)CCC=C(C)C)OC [Citral DMA, citral dimethylacetal] | >85 |  | >85 |  | >85 | none | none | none |  |  |  |  |  |  | 
4 | O=Cc1ccccc1O [Salicylic aldehyde] | >85 |  | >85 |  | >85 | none | none | none | Cumin aldehyde and Thymol and 1-Decanol and Citronellol |  |  |  |  |  | 
5 | CC(C)=CCCC(C)CC=O (stereo not drawn) [Citronellal] | 15 |  | >85 |  | >85 | weak | sparse | sparse |  |  | Thymol, and 1-Decanol, and Citronellol |  |  |  | 
6 | CC(C=O)Cc1ccc2c(c1)OCO2 (stereo not drawn) [Helional] | 10 | 35 | 35 |  | 0 | good | weak | weak |  |  |  |  |  |  | 
7 | C=C(C)[C@@H]1CC=C(CO)CC1 [Perilla alcohol] | 30 | 40 | 40 |  | 45 | good | slight | slight |  |  |  |  |  |  | 
8 | Cc1ccc(C(C)C)c(O)c1 [Thymol] | 70 | >85 | >85 |  | >85 | weak | sparse | sparse |  |  |  |  |  |  | 
9 | COC(/C=C/c1ccccc1)OC [Cinnamic aldehyde DMA, cinnamic aldehydodimethylacetal] | 35 | 45 | 65 |  | 0 | weak | slight | good |  |  |  |  |  |  | 
10 | O=CCc1ccccc1 [Phenylacetaldehyde] |  |  |  |  |  |  |  |  |  |  |  | 25 | good | 30 | 
11 | CC(C)c1cccc(=O)c(O)c1 [Hinokitiol] | 60 |  | 70 |  | 0 | good | good | good |  |  |  |  |  |  | 
12 | COC(=O)c1ccccc1O [Methyl salicylate] | 40 |  | 65 |  | 0 | weak | weak | good |  |  |  |  |  |  | 
13 | CC=Cc1ccc(O)c(OC)c1 [Isoeugenol] | 30 | 50 | 35 | 40 | 45 | good | good | good |  |  |  |  |  |  | 55
14 | CCCCCCCCC=O [Example 1-nonanal, 1-nonanal] | 20 |  | >85 |  | >85 | weak | sparse | sparse |  |  |  |  |  |  | 
15 | C=C(C)C1CC=C(C=O)CC1 (stereo not drawn) [Perill aldehyde] | >85 |  | >85 |  | >85 | none | none | none |  |  |  |  |  |  | 
